Assay results reported in ChEMBL document CHEMBL4376820, “Homodimeric Tobramycin Adjuvant Repurposes Novobiocin as an Effective Antibacterial Agent against Gram-Negative Bacteria” (J Med Chem, 2019).
Activity calls are given as the source filed them. The calls are words filed in the database; no cut-off is given here. Positions of bridges follow the written chain, without caps; N, C: chain ends. Non-standard residues stand in square brackets, D forms with d. Residues, ends and D or L forms follow the SMILES beside them. Dab = NCC[C@H](N)C(=O)O

Tests used:
Acinetobacter baumannii [1] = test: Potentiation of novobiocin-induced antibacterial activity against novobiocin and colistin resistant Acinetobacter baumannii ATCC 17978 mutant generated from seven serial passages by checkerboard assay; format: functional, organism-based
Pseudomonas aeruginosa [2] = test: Potentiation of novobiocin-induced antibacterial activity against colistin and carbapenem-resistant Pseudomonas aeruginosa 101243 clinical isolate assessed as novobiocin MIC at <= 7.1 uM incubated for 18 hrs by CLSI protocol based assay (reference value: 128 ug/ml); format: functional; details: Pseudomonas aeruginosa, 101243, 18 h
Pseudomonas aeruginosa [3] = test: Potentiation of novobiocin-induced antibacterial activity against carbapenem and colistin-resistant Pseudomonas aeruginosa 91433 clinical isolate assessed as novobiocin MIC at <= 7.1 uM incubated for 18 hrs by CLSI protocol based assay (reference value: 16 ug/ml); format: functional; details: Pseudomonas aeruginosa, 91433, 18 h
Enterobacter cloacae = test: Potentiation of novobiocin-induced antibacterial activity against colistin-resistant Enterobacter cloacae 118568 clinical solate assessed as novobiocin MIC at <= 7.1 uM incubated for 18 hrs by CLSI protocol based assay (reference value: 1024 ug/ml); format: functional; details: Enterobacter cloacae, 118568, 18 h
Escherichia coli [4] = test: Potentiation of novobiocin-induced antibacterial activity against colistin-resistant Escherichia coli 94474 clinical isolate harboring mcr-1 gene assessed as novobiocin MIC at <= 7.1 uM incubated for 18 hrs by CLSI protocol based assay (reference value: 256 ug/ml); format: functional; details: Escherichia coli, 94474, 18 h
Klebsiella pneumoniae = test: Potentiation of novobiocin-induced antibacterial activity against colistin-resistant Klebsiella pneumoniae 113254 clinical isolate assessed as novobiocin MIC at <= 7.1 uM incubated for 18 hrs by CLSI protocol based assay (reference value: 256 ug/ml); format: functional; details: Klebsiella pneumoniae, 113254, 18 h
Pseudomonas aeruginosa [5] = test: Induction of outer membrane permeabilization in Pseudomonas aeruginosa PAO1 assessed as increase in accumulation of NPN by measuring fluorescence intensity at 8 ug/ml measured immediately by NPN dye uptake assay; format: organism-based
Escherichia coli [6] = test: Potentiation of novobiocin-induced antibacterial activity against colistin-resistant Escherichia coli 94393 clinical isolate harboring mcr-1 gene assessed as novobiocin MIC at <= 7.1 uM incubated for 18 hrs by CLSI protocol based assay (reference value: 128 ug/ml); format: functional; details: Escherichia coli, 94393, 18 h
Pseudomonas aeruginosa [7] = test: Potentiation of novobiocin-induced antibacterial activity against carbapenem and colistin-resistant Pseudomonas aeruginosa 114228 clinical isolate assessed as novobiocin MIC at <= 7.1 uM incubated for 18 hrs by CLSI protocol based assay (reference value: 512 ug/ml); format: functional; details: Pseudomonas aeruginosa, 114228, 18 h
Pseudomonas aeruginosa [8] = test: Potentiation of novobiocin-induced antibacterial activity against wild type Pseudomonas aeruginosa PAO1 assessed as novobiocin MIC at <= 7.1 uM incubated for 18 hrs by CLSI protocol based assay (reference value: 512 ug/ml); format: functional; details: PAO1, 18 h
[9] = Toxicity in Galleria mellonella larvae MDR Acinetobacter baumannii isolate assessed as larvae protection at 25 mg/kg in combination with novobiocin measured after 24 to 96 hrs relative to control; format: ADME, organism-based; details: in vivo
Acinetobacter baumannii [10] = test: Potentiation of novobiocin-induced antibacterial activity against colistin-resistant Acinetobacter baumannii 92247 clinical isolate assessed as novobiocin MIC at <= 7.1 uM incubated for 18 hrs by CLSI protocol based assay (reference value: 4 ug/ml); format: functional; details: Acinetobacter baumannii, 92247, 18 h

For `CC(C)C[C@@H]1NC(=O)[C@@H](Cc2ccccc2)NC(=O)[C@H](CCN)NC(=O)[C@@H](NC(=O)[C@H](CCN)NC(=O)[C@@H](N)[C@@H](C)O)CCNC(=O)[C@H]([C@@H](C)O)NC(=O)[C@H](CCN)NC(=O)[C@H](CCN)NC1=O` [POLYMYXIN B NONAPEPTIDE] (H-T[Dab][Dab][Dab][dF]L[Dab][Dab]T; lactam 3-C), the Activity (Acinetobacter baumannii [1]) was “inactive”, the MIC (Pseudomonas aeruginosa [2]) was 8 µg/mL and the MIC (Pseudomonas aeruginosa [3]) was 4 µg/mL. For the same compound, the MIC (Enterobacter cloacae) was 512 µg/mL, the MIC (Escherichia coli [4]) was 32 µg/mL and the MIC (Klebsiella pneumoniae) was 64 µg/mL. The Activity (Pseudomonas aeruginosa [5]) was “Active”, the MIC (Escherichia coli [6]) was 4 µg/mL and the MIC (Pseudomonas aeruginosa [7]) was 128 µg/mL. The MIC (Pseudomonas aeruginosa [8]) was 4 µg/mL, the Activity [9] was 35% and the MIC (Acinetobacter baumannii [10]) was 1 µg/mL.
